Reference: US7750028B2, “Crystal modifications of 1-(2,6-difluorobenzyl)-1H-1, 2,3-triazole-4-carboxamide” (Novartis AG, priority 1997, dated 2010)

Tests used:
Format in all cases: physicochemical
[1] = thermodynamic investigations (thermomicroscopy, X-ray powder diffractometry, DSC, solubility tests) of crystal modifications; details: for thermodynamic stability: comparison of the crystal modifications A/A′, B and C
Text: The modification A or A′ has significant advantages compared with the modification B and compared with the modification C.

[2] = dissolution rate in water; details: comparison between modifications
[3] = dissolution rate in gastric fluid; details: comparison between modifications

## NC(=O)c1cn(Cc2c(F)cccc2F)nn1 [modification A, 1-(2,6-difluorobenzyl)-1H-1,2,3-triazole-4-carboxamide]
[1]
  thermodynamic stability: substantially better thermodynamic stability than the modifications B and C
[2]
  dissolution rate: slower dissolution rate
[3]
  dissolution rate: slower dissolution rate

## NC(=O)c1cn(Cc2c(F)cccc2F)nn1 [modification A′, 1-(2,6-difluorobenzyl)-1H-1,2,3-triazole-4-carboxamide]
[1]; listed as A′
  thermodynamic stability: substantially better thermodynamic stability than the modifications B and C
[2]
  dissolution rate: slower dissolution rate
[3]
  dissolution rate: slower dissolution rate

## NC(=O)c1cn(Cc2c(F)cccc2F)nn1 [modification B, 1-(2,6-difluorobenzyl)-1H-1,2,3-triazole-4-carboxamide]
[2]
  dissolution rate: substantially faster dissolution rate
[3]
  dissolution rate: substantially faster dissolution rate

## NC(=O)c1cn(Cc2c(F)cccc2F)nn1 [modification C, 1-(2,6-difluorobenzyl)-1H-1,2,3-triazole-4-carboxamide]
[1]; at as low as room temperature
  conversion of the crystals into modification B: within a few weeks
[1]; listed as Modification C
  thermodynamic stability: the least stable of the three modifications
[1]; depending on experimental conditions
  conversion into other modifications: converted either into the modification A or A′ or into the modification B
